We go through 17 compounds from patent publication US11236106B2, “Cycloalkane-1,3-diamine derivative” (Daiichi Sankyo Company, Limited, priority 2018, dated 2022).

A word on the IC50: it is the point on the concentration scale where inhibition reaches its midpoint. Read a high IC50 as weaker potency.

Structures are written as SMILES. Where a name gives a salt, the structure may show the parent alone.

The target of the first experiment is T1, menin and MLL (menin, Flag tagged; biotinylated MLL1 peptide 1-46aa) (Homo sapiens, UniProt O00255).
T1 sequence (O00255 1-610): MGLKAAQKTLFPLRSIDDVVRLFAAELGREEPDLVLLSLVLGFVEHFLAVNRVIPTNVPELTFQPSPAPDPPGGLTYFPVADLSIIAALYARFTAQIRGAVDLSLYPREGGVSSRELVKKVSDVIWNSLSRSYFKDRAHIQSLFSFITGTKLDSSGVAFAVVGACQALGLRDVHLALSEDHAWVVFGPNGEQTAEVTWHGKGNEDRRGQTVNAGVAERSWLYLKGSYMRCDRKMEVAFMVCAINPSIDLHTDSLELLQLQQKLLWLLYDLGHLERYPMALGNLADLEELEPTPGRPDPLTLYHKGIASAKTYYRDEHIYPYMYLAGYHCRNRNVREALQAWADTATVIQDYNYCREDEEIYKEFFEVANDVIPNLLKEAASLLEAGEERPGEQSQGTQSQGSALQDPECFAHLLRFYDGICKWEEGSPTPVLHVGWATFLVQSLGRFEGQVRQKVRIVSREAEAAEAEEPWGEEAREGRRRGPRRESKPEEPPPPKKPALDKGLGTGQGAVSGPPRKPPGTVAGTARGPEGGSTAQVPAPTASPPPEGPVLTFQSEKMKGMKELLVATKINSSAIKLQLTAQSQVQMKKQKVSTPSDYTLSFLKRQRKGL
The experiment can be described thus: biochemical.
Settings: not given
In the case of `CN(c1ncnc2sc(CC(F)(F)F)cc12)[C@H]1C[C@@H](NCc2ccc(-n3cnc4ccccc43)cc2)C[C@H]1O` [Example 79, (1R,2S,4R)-4-({[4-(1H-benzimidazol-yl)phenyl]methyl}amino)-2-{methyl[6-(2,2,2-trifluoroethyl)thieno[2,3-d]pyrimidin-4-yl]amino}cyclopentan-1-ol hydrochloride], half-maximal inhibition (IC50) required 3.5 nM.

The experiment is the same for the next values; noted with them: IC50, binding inhibitory activity between menin and MLL, AlphaLISA; 1 nM menin, 10 nM biotinylated MLL1 peptide.
For the compound `CN(c1ncnc2sc(CC(F)(F)F)cc12)[C@H]1C[C@@H](NCc2ccc(-c3cncc4c3cnn4C)cc2)C[C@H]1O` [Example 72, (1R,2S,4R)-4-({[4-(1-methyl-1H-pyrazolo[3,4-c]pyridin-4-yl)phenyl]methyl}amino)-2-{methyl[6-(2,2,2-trifluoroethyl)thieno[2,3-d]pyrimidin-4-yl]amino}cyclopentan-1-ol hydrochloride], the concentration for half-maximal inhibition (IC50) was determined as 10.7 nM. Consider `CN(c1ncnc2sc(CC(F)(F)F)cc12)[C@H]1C[C@@H](NCc2ccc(-c3cccc(CS(C)(=O)=O)c3)cc2)C[C@H]1O` [Example 86, (1R,2S,4R)-4-[({3′-[(methanesulfonyl)methyl][1,1′biphenyl]-4-yl}methyl)amino]-2-{methyl[6-(2,2,2 trifluoroethyl)thieno[2,3-d]pyrimidin-4-yl]amino}cyclopentan-1-ol hydrochloride], for which the IC50 came to 20.9 nM. In the case of `COc1nc(N(C)[C@H]2C[C@@H](NCc3cccc(Nc4cccnc4)c3)C[C@H]2O)c2cc(CC(F)(F)F)sc2n1` [Example 120, (1R,2S,4R)-2-{[2-methoxy-6-(2,2,2-trifluoroethyl)thieno[2,3-d]pyrimidin-4-yl](methyl)amino}-4-[({3-[(pyridin-3-yl)amino]phenyl}methyl)amino]cyclopentan-1-ol hydrochloride], the IC50 was found to be 5.8 nM. The same measure, in the same setting: the figure for `COc1nc(N(C)[C@H]2C[C@@H](NCc3ccc(-c4cnc(C#N)c(OC)c4)cc3)C[C@H]2O)c2cc(CC(F)(F)F)sc2n1` [Example 106, 5-[4-({[(1R,3R,4S)-3-hydroxy-4-{[2-methoxy-6-(2,2,2-trifluoroethyl)thieno[2,3-d]pyrimidin-4-yl](methyl)amino}cyclopentyl]amino}methyl)phenyl]-3-methoxypyridine-2-carbonitrile hydrochloride] is 0.7 nM. The same measure, in the same setting: the figure for `COc1cncc(-c2ccc(CN[C@H]3C[C@@H](O)[C@@H](N(C)c4ncnc5sc(CC(F)(F)F)cc45)C3)cc2)c1` [Example 129, (1R,2S,4R)-4-({[4-(5-methoxypyridin-3-yl)phenyl]methyl}amino)-2-{methyl[6-(2,2,2-trifluoroethyl)thieno[2,3-d]pyrimidin-4-yl]amino}cyclopentan-1-ol Hydrochloride] is 5.5 nM; for `COc1cc(-c2ccc(CN[C@H]3C[C@@H](O)[C@@H](N(C)c4ncnc5sc(CC(F)(F)F)cc45)C3)cc2)nnc1N(C)C` [Example 98, (1R,2S,4R)-4-[({4-[6-(dimethylamino)-5-methoxypyridazin-3-yl]phenyl}methyl)amino]-2-{methyl[6-(2,2,2-trifluoroethyl)thieno[2,3-d]pyrimidin-4-yl]amino}cyclopentan-1-ol hydrochloride] it is 1.9 nM; for `CN(c1ncnc2sc(CC(F)(F)F)cc12)[C@@H]1CC[C@H](NCc2ccc(-c3cnc4c(c3)OCCO4)cc2)C1` [Example 63, (1R,3S)-N^3-{[4-(2,3-dihydro[l,4]dioxino[2,3-b]pyridin-7-yl)phenyl]methyl}-N^1-methyl-N^1-[6-(2,2,2-trifluoroethyl)thieno[2,3-d]pyrimidin-4-yl]cyclopentane-1,3-diamine hydrochloride] it is 19.9 nM.

Staying with this experiment, now noted: cell free IC50 (nM), 1 nM menin, 10 nM biotinylated MLL1 peptide, AlphaLISA.
As to `COc1cncc(-c2ccc(CN[C@@H]3C[C@H](N(C)c4ncnc5sc(CC(F)(F)F)cc45)[C@H](O)[C@@H]3O)cc2)c1` [Example 20A, (1S,2R,3R,5S)-3-({[4-(5-methoxypyridin-3-yl)phenyl]methyl}amino)-5-{methyl[6-(2,2,2-trifluoroethyl)thieno[2,3-d]pyrimidin-4-yl]amino}cyclopentane-1,2-diol Hydrochloride], the midpoint of inhibition, the IC50, lay at 3.9 nM. On the same count and under the same terms, the figure for `CN(c1ncnc2sc(CC(F)(F)F)cc12)[C@@H]1CC[C@H](NCc2cncs2)C1` [Example 36, (1R,3S)-N^1-methyl-N^3-[(1,3-thiazol-5-yl)methyl]-N^1-[6-(2,2,2-trifluoroethyl)thieno[2,3-d]pyrimidin-4-yl]cyclopentane-1,3-diamine hydrochloride] is 636 nM; for `CN(c1ncnc2sc(CC(F)(F)F)cc12)[C@@H]1CC[C@H](NCC2CCCCC2)C1` [Example 28, (1R,3S)-N^3-(cyclohexylmethyl)-N^1-methyl-N^1-[6-(2,2,2-trifluoroethyl)thieno[2,3-d]pyrimidin-4-yl]cyclopentane-1,3-diamine hydrochloride] it is 1160 nM. On the same count and under the same terms, the figure for `CN(c1nc(N)nc2sc(CC(F)(F)F)cc12)[C@H]1C[C@@H](NCc2ccc(-n3ccnc3)cc2)C[C@H]1O` [Example 21, (1R,2S,4R)-2-{[2-amino-6-(2,2,2-trifluoroethyl)thieno[2,3-d]pyrimidin-4-yl](methyl)amino}-4-({[4-(1H-imidazol-1-yl)phenyl]methyl}amino)cyclopentan-1-ol Hydrochloride] is 7 nM; for `O=C1CCCN1Cc1ccc(CN[C@H]2CCC[C@@H](Nc3ncnc4sc(CC(F)(F)F)cc34)C2)cc1` [Example 38, 1-{[4-({[(1S,3R)-3-{[6-(2,2,2-trifluoroethyl)thieno[2,3-d]pyrimidin-4-yl[amino}cyclohexy]amino}methyl)phenyl]methyl}pyrrolidin-2-one hydrochloride] it is 1850 nM. On the same count and under the same terms, the same measure for `N#Cc1cc2cc(CN[C@@H]3CC[C@@H](Nc4ncnc5sc(CC(F)(F)F)cc45)C3)ccc2[nH]1` [Example 1, 5-({[(1R,3R)-3-{[6-(2,2,2-trifluoroethyl)thieno[2,3-d]pyrimidin-4-yl]amino}cyclopentyl]amino}methyl)-1H-indole-2-carbonitrile Hydrochloride]: 494 nM; for `C=CC(=O)Nc1cccc(Nc2ccc(CN[C@H]3CC[C@@H](N(C)c4nc(NC)nc5sc(CC(F)(F)F)cc45)C3)cc2)c1` [Example 55, N-{3-[4-({[(1S,3R)-3{methyl[2-(methylamino)-6-(2,2,2-trifluoroethyl)thieno[2,3-d]pyrimidin-4-yl]amino}cyclopentyl]amino}methyl)anilino]phenyl}prop-2-enamide hydrochloride]: 9.8 nM.

Turning to `COc1cncc(-c2ccc(CN[C@@H]3C[C@H](N(C)c4ncnc5sc(CC(F)(F)F)cc45)C[C@@H]3O)cc2)c1` [Example 51, (1S,2R,4S)-2-({[4(5methoxypyridin-3-yl)phenyl]methyl}amino)-4-{methyl[6-(2,2,2-trilluoroethyl)thieno[2,3-d]pyrimidin-4-yl]amino}cyclopentan-1-ol hydrochloride], half-maximal inhibition (IC50) required 10.1 nM. Same read-out and setting: the figure for `CN(c1ncnc2sc(CC(F)(F)F)cc12)[C@@H]1CC[C@H](NCc2ccc(-c3cnc4ccoc4c3)cc2)C1` [Example 14, (1R,3S)—N^3-{[4-(furo[3,2-b]pyridin-6-yl)phenyl]methyl}-N^1-methyl-N^1-[6-(2,2,2-trifluoroethyl)thieno[2,3-d]pyrimidin-4-yl]cyclopentane-1,3-diamine Hydrochloride] is 27.4 nM.
